Reference: patent US6436948B1, “Method for the treatment of psoriasis and genital warts” (priority 1995, dated 2002)
“Also recorded” adds a separate entry of the source.

Tests used:
[1] = test system: SN12C; test: NCI cancer screening program, SRB: SN12C; format: cell-based; details: Renal Cancer, PG +50, 48 hours
[2] = test system: UO-31; test: NCI cancer screening program, SRB: UO-31; format: cell-based; details: Renal Cancer, PG +50, 48 hours
[3] = test system: PC-3; test: NCI cancer screening program, SRB: PC-3; format: cell-based; details: Prostate Cancer, PG +50, 48 hours
[4] = test system: DU-145; test: NCI cancer screening program, SRB: DU-145; format: cell-based; details: Prostate Cancer, PG +50, 48 hours
[5] = test system: MCF7; test: NCI cancer screening program, SRB: MCF7; format: cell-based; details: Breast Cancer, PG +50, 48 hours
[6] = test system: MCF7/ADR-RES; test: NCI cancer screening program, SRB: MCF7/ADR-RES; format: cell-based; details: Breast Cancer
[7] = test system: HS578T; test: NCI cancer screening program, SRB: HS578T; format: cell-based; details: Breast Cancer, PG +50, 48 hours
[8] = test system: MDA-MB-435; test: NCI cancer screening program, SRB: MDA-MB-435; format: cell-based; details: Breast Cancer
[9] = test system: MDA-N; test: NCI cancer screening program, SRB: MDA-N; format: cell-based; details: Breast Cancer, PG +50, 48 hours
[10] = test system: BT-549; test: NCI cancer screening program, SRB: BT-549; format: cell-based; details: Breast Cancer, PG +50, 48 hours
[11] = test system: T-47D; test: NCI cancer screening program, SRB: T-47D; format: cell-based; details: Breast Cancer, PG +50, 48 hours
[12] = test system: KB nasopharyngeal carcinoma cell line; test: In vitro cytotoxicity, methylene blue assay / cell count: KB; format: cell-based; details: three generations, mean ± standard deviation of five experiments, read-out: ID50 (the source's name)
[13] = test system: DU-145 prostate carcinoma line; test: In vitro cytotoxicity, methylene blue assay / cell count: DU-145; format: cell-based; details: Homo sapiens, read-out: ID50 (the source's name)
[14] = test system: PC-3 prostate carcinoma line; test: In vitro cytotoxicity, methylene blue assay / cell count: PC-3; format: cell-based; details: three generations, mean ± standard deviation of five experiments, read-out: ID50 (the source's name)
[15] = test system: CEM cells; test: In vitro cytotoxicity, methylene blue assay / cell count: CEM; format: cell-based; details: Homo sapiens, CCRF-CEM, three generations, mean ± standard deviation of five experiments, read-out: ID50 (the source's name)
[16] = test system: tumor cell lines tested; test: In vitro cytotoxicity, statement on all tumor cell lines tested; format: cell-based; details: all of the tumor cell lines tested
[17] = test system: HepG2 tumors; test: HepG2 xenograft in NCr nude mice; format: in vivo, human; details: for Effect on HepG2 tumors in words: 25 mg/kg twice a day on days 0 through 4, NCr nude mice; for Net cell kill (log 10): HepG2 tumors, 25 mg/kg twice a day days 0 through 4
Description: (§1) FIG. 5 is a graph of the inhibition of human tumor growth by […]. Three to six week old NCr nude mice were inoculated subcutaneously in each flank with 2×10^6 HepG2 or DU-145 cells. Treatment was started when the tumors were in an advanced stage of growth. Drugs were administered twice a day on days 0 through 4 and tumor sizes were measured on the indicated days. […] Each data point represents the means±SD of 10 tumors in graph A and six tumors in graph B.
(§2) Three to six-week-old NCr nude mice (Taconic Immunodeficient Mice and Rats) were inoculated s.c. in each flank with 2×10^6HepG2 or DU-145 cells and tumors were allowed to grow. Treatment was started when the tumors were 100-250mg as determined by caliper measurement and calculated according to the formula:
(§3) Tumor Weight(mg)=length(mm)×width(mm^2)÷2
(§4) Drugs were given at the indicated doses on days 0 through 4 and tumor sizes were measured every several days. The tumor growth curves were generated as described in Bell, et al., Cancer(phila.) 36:2437-2440 (1975), and are illustrated in FIGS. 5(a) and 5(b).

[18] = test system: DU-145 tumors; test: DU-145 xenograft in NCr nude mice; format: in vivo, human
Description: as §1, §2, §3, §4

[19] = test system: NCr nude mice; format: in vivo
Description: as §4
Toxicity was evaluated by changes in body weight.

[20] = target: human deoxycytidine kinase (Homo sapiens, UniProt P27707); test: In vitro enzymatic studies of phosphorylation; format: biochemical
human deoxycytidine kinase, sequence (P27707 whole entry): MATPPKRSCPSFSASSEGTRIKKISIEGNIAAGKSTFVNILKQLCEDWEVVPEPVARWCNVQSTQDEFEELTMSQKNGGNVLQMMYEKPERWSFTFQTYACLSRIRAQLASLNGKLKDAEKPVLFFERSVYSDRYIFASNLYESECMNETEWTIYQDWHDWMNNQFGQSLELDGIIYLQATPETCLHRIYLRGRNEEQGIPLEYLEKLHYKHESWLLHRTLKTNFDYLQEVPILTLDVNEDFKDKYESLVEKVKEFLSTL

[21] = Phosphorylation to nucleotides in vivo
[22] = test system: BKVX; details: Non-Small Cell Lung Cancer, PG +50, 48 hours
Description: (§5) GI50, TGI and LC50 are values representing the concentrations at which the PG (percent of growth inhibition), defined below, is +50, 0, and −50, respectively.
(§6) If (Mean ODtest−Mean ODtzero)≧0. then PG=100×(Mean ODtest−Mean ODtzero)/(Mean ODctrl−Mean ODtzero)
(§7) If (Mean ODtest−Mean ODtzero)<0. then PG=100×(Mean ODtest−Mean ODtzero)/(Mean ODtzero)
(§8) Mean ODtzero=The average of optical density measurements of SRB-derived color just before exposure of cells to the test compound.
(§9) Mean ODtestThe average of optical density measurements of SRB-derived color after 48 hours exposure of cells to the test compound.
(§10) Mean ODctrl=The average of optical density measurements of SRB-derived color after 48 hours with no exposure of cells to the test compound.
(§11) If these response parameters could not be obtained by interpolation, the value given for each response parameter is the highest concentration tested and is preceded by a “>” sign.

[23] = test system: K2112; details: Colon Cancer
Description: as §5, §6, §7, §8, §9, §10, §11

[24] = test system: SP-268; details: CNS Cancer, PG +50, 48 hours
Description: as §5, §6, §7, §8, §9, §10, §11

[25] = test system: SP-295; details: CNS Cancer, PG +50, 48 hours
Description: as §5, §6, §7, §8, §9, §10, §11

[26] = test system: 785-4; details: Renal Cancer, PG +50, 48 hours
Description: as §5, §6, §7, §8, §9, §10, §11

[27] = test system: TK-30; details: Renal Cancer
Description: as §5, §6, §7, §8, §9, §10, §11

[28] = test system: MDA-MB-231/ATCC; details: Breast Cancer, PG +50, 48 hours
Description: as §5, §6, §7, §8, §9, §10, §11

[29] = target: cytidine deaminase (Homo sapiens, UniProt P32320); test: Enzymatic studies of deamination
cytidine deaminase, sequence (P32320 whole entry, species assumed): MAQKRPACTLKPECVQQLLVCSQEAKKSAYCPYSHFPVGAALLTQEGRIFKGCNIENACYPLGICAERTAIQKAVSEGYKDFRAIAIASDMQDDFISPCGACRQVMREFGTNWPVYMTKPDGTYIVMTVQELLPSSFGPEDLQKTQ

[30] = test system: A549/ATCC; test: NCI cancer screening program, SRB: A549/ATCC; details: Non-Small Cell Lung Cancer, PG +50, 48 hours
Description: as §5, §6, §7, §8, §9, §10, §11

Nc1ccn([C@@H]2CO[C@H](CO)O2)c(=O)n1 [(−)-OddC, (−)-(2S,4S)-1-(2-hydroxymethyl-1,3-dioxolan-4-yl)cytosine]
LOG10GI50 [1]: −6.27 | LOG10GI50 [2]: −5.60 | LOG10GI50 [3]: −6.29 | LOG10GI50 [4]: −6.97 | LOG10GI50 [5]: −5.95 | LOG10TGI ([6]; PG 0, 48 hours): >−4.00 | LOG10GI50 ([6]; PG +50, 48 hours): −4.97 | LOG10GI50 [7]: >−4.00 | LOG10TGI ([8]; PG 0, 48 hours): >−4.00 | LOG10GI50 ([8]; PG +50, 48 hours): −4.62 | LOG10GI50 [9]: −4.33 | LOG10GI50 [10]: −4.59 | LOG10GI50 [11]: >−4.00 | IC50 [12]: 48 ± 21 nM | IC50 [13]: 24 ± 20 nM | IC50 [14]: 56 ± 39 nM | IC50 [15]: 25 ± 30 nM | Cytotoxicity in words [16]: more cytotoxic than AraC | Effect on HepG2 tumors in words [17]: active | Effect on HepG2 tumors in words ([17]; listed as (L)-OddC): effective | Net cell kill (log 10) ([17]; i.p. treatment): 0.67 | Net cell kill (log 10) ([17]; oral treatment): 0.87 | Effect on DU-145 tumors in words ([18]; 25 mg/kg twice a day on days 0 through 4, NCr nude mice): effective | DU-145 tumors regressing completely ([18]; by day 15): half of them regressing completely | Toxicity as indicated by weight loss of the animals ([19]; doses given, 25 mg/kg twice a day days 0 through 4): equally toxic | Maximum tolerated dosage ([19]; twice a day for five continuous days of treatment, preliminary toxicity experiments): 25 mg/kg | Phosphorylation by human deoxycytidine kinase [20]: can be phosphorylated | Phosphorylation in vivo [21]: can be phosphorylated to mono-, di- and tri-phosphate nucleotide | Log10GI50 [22]: >−4.00 | Log10TGI ([23]; PG 0, 48 hours): >−4.00 | Log10GI50 ([23]; PG +50, 48 hours): >−4.00 | Log10GI50 [24]: −5.18 | Log10GI50 [25]: −6.24 | LOG10GI50 [26]: −5.36 | LOG10TGI ([27]; PG 0, 48 hours): >−4.00 | LOG10GI50 ([27]; PG +50, 48 hours): >−4.00 | LOG10GI50 [28]: >−4.00 | Substrate for deaminase / deamination by cytidine deaminase [29]: not a substrate; also recorded: not deaminated | Log10GI50 [30]: −6.01
